Data: patent US20220362174A1, “Use of R-enantiomer Beta2-agonists for prevent and treatment of pulmonary inflammation and inflammatory remodeling for reduced adverse effects” (priority 2019, published 2022)
“Also recorded” adds a separate entry of the source.

Assays:
[1] = tested on: OVA-sensitized/OVA-challenged mice; test: Airway responsiveness to methacholine by whole-body plethysmography (Penh) in OVA sensitized/challenged asthma model; assay type: in vivo
Method: (§1) OVA sensitized/challenged asthma model Mice were sensitized and challenged with ovalbumin (OVA) or normal saline. Briefly, mice were sensitized by intraperitoneal (i.p.) injection of 0.2 mL of 2% aluminum hydroxide (ALUM) gel containing 10 μg of OVA antigen on days 0 and 14. On days 21, 22 and 23, the mice were challenged with 1% OVA in saline (0.01 g/mL) for 20 min via. a nebulizer (PART Turbo boy). On day 26, a 20 min nebulized OVA challenge with 5% OVA in saline (0.05 g/mL) was conducted. The control group received 0.2 mL of saline with 2% ALUM administered intraperitoneally on days 0 and 14 before receiving 20 min nebulized normal saline without OVA on days 21, 22, 23 and 26.
In vivo airway responsiveness to methacholine (Mch) was assessed on day 28 in conscious, freely moving, spontaneously breathing mice by a whole-body plethysmography (Buxco Electronics Inc.). Mice were challenged with aerosolized saline or increasing concentrations of Mch (2, 10, 20 mg/mL) administered by an ultrasonic nebulizer for 2 min. Before Mch challenge, a 20 μL drug aerosol or saline was given to the mice because of the short-acting bronchodilating effect of terbutaline. The degree of bronchoconstriction was expressed as enhanced pause (Penh), a calculated dimensionless value that correlates with measurement of airway resistance, impedance, and intrapleural pressure. Penh values were recorded and averaged for 4 min after each nebulization challenge.

[2] = tested on: OVA-sensitized/OVA-challenged mice; test: Whole blood analysis and eosinophils counts in BAL fluid; assay type: in vivo; settings: OVA asthma mice after repeated inhalation
Method: as §1
After Methacholine challenge, mice were anesthetized, blood was collected for hematology analysis. Part of the collected blood was transferred to a heparinized Eppendorf tube, gently mixed and centrifuged under 845×g at 4° C. for 10 min to isolate plasma specimen for further analysis. Broncho alveolar lavage (BAL) was performed on the right lung using 0.3 mL of phosphate buffered saline (PBS) for four times. The saline was instilled into the lungs and allowed to equilibrate for 30 s before recovery, after centrifugation supernatants were stored at −80° C. for further cytokines analysis while cell pellet was suspended in 0.5 ml PBS and the eosinophils counts were performed using Wright's stain. Then all the organs (liver, right lung lobe, spleen, kidneys, heart, brain) were excised surgically and washed totally with ice-cold PBS to clear the blood and then blotted dry with filter paper. These tissue specimens were then accurately weighted and stored at −80° C. for detecting the drug distribution by LC-MS/MS. White blood cell (WBC) counts and differential WBC counts were analyzed using a ProCyte Dx Hematology Analyzer (IDEXX Laboratories) in 4 h after blood collection.

[3] = tested on: OVA-sensitized/OVA-challenged mice; test: Lung histopathology (H&E, PAS, Masson) after R-, S-, rac-terbutaline; assay type: in vivo
Method: as §1
(§2) Left lung tissue was obtained for histopathology and fixed in 10% formalin for 24 h, followed by paraffin-embedded and then were sectioned at 4 μm for routine staining with hematoxylin and eosin (H&E, Solarbio, Beijing, China), or with periodic acid-Schiff (PAS, Solarbio, Beijing, China), or submitted to Masson's trichrome staining (Baso, Zhuhai, China). Images of the stained lung sections were obtained by an Axisplus image-capturing system (Zeiss, Germany) and then a minimum of 3 bronchi (luminal diameter, 150-500 μm) were analyzed per mice for various parameters using an image analyzing computer system (IPP) by pathologists blinded to grouping. Histological score, airway smooth muscle thickness, PAS score (goblet cells hyperplasia), and collagen deposition were evaluated by a semi-quantitative scoring method.

p38 MAPK = test: Western blot of lung tissue: p38 MAPK phosphorylation; assay type: in vivo, mice; settings: vs OVA group
Method: as §1
Total protein from lung tissue was extracted according to the guidelines of manufacturer (Beyotime, China) and the concentrations were determined by BCA assay (Pierce). Primary antibodies against p38 MAPK (CST #8690), p-p38 MAPK (Thr180/Tyr182, CST #4511), NF-κB p65 (GeneTex #GTX102090), p-NF-κB p65 (S536, CST #3033) and GAPDH (Affinity #AF7021) as a standard were purchased and used.

BALB/c mice [4] = test: Survival study after LPS challenge (sepsis); assay type: in vivo; settings: for Percent of death after LPS challenges, 12 h: Saline + LPS 0; for Percent of death after LPS challenges, 24 h: Saline + LPS 36.4; for Percent of death after LPS challenges, 36 h: Saline + LPS 72.7; for Percent of death after LPS challenges, 48 h / Percent of death after LPS challenges, 72 h / Percent of death after LPS challenges, 144 h: Saline + LPS 90.9
Method: Treatment were given intraperitoneally for 3 consecutive days. One hour after the 3rd day treatments, LPS (15 mg/kg) was administered intraperitoneally. The animals were monitored. Survival rate was then recorded every 12 h for 144 hours.

BALB/c mice [5] = test: Lung function measurements 6 hours after LPS (Buxco); assay type: in vivo; settings: 5.0 mg/kg
Method: Methods: Survival study: […] Treatment were given intraperitoneally for 3 consecutive days. […] The animals were monitored. Survival rate was then recorded every 12 h for 144 hours. The lung functions were measured with using Buxco system (Buxco Electronics, USA). After a brief acclimation to the chamber, the mice received an initial baseline challenge of saline. Measures were made at 6 hours after administration of LPS, including tidal volume and Penh which is an indication of airway resistance.

OVA induced asthma mice [6] = test: Combination therapy of ipratropium with RS-, R- and S-salbutamol: airway resistance in response to methacholine; assay type: in vivo; settings: for increase in airway resistance after treatment: response to methacholine, OVA + Saline 445%
Method: OVA sensitized/challenged asthma model Mice were sensitized and challenged with ovalbumin (OVA) or normal saline. […] On days 21, 22 and 23, the mice were challenged with 1% OVA in saline (0.01 g/mL) for 20 min via. a nebulizer (PART Turbo boy). […] In vivo airway responsiveness to methacholine (Mch) was assessed on day 28 in conscious, freely moving, spontaneously breathing mice by a whole-body plethysmography (Buxco Electronics Inc.). […] Before Mch challenge, a 20 μL drug aerosol or saline was given to the mice because of the short-acting bronchodilating effect of terbutaline. The degree of bronchoconstriction was expressed as enhanced pause (Penh), a calculated dimensionless value that correlates with measurement of airway resistance, impedance, and intrapleural pressure. […] Methods used were similar as mentioned above. Nebulized aerosol of saline, Methacholine 2 mg/ml (low dose) or 10 mg/ml (high dose) were given via inhalation to OVA induced asthma mice.

[7] = tested on: macrophages from the peritoneal fluid; test: LPS-induced proliferation and polarization of macrophages from the peritoneal fluid (sepsis); assay type: in vivo; settings: in comparison of sepsis condition
Text: Macrophage activation and proliferation was considered to be the key step of initiation and development of sepsis. In one embodiment, LPS (PAMPs from bacteria) induced a proliferation and polarization of macrophages from the peritoneal fluid. […] These inhibitory effects can be blocked by using specific β2-recepter blocker.

OVA induced asthma mice [8] = test: Combination therapy of ipratropium with R- and S-salbutamol: lung histopathology (Masson, PAS); assay type: in vivo
Method: as §2
Methods used were similar as mentioned above. Nebulized aerosol of saline, Methacholine 2 mg/ml (low dose) or 10 mg/ml (high dose) were given via inhalation to OVA induced asthma mice.

[9] = tested on: LPS-induced RAW264.7 cells; test: M1/M2 macrophage polarization by flow cytometry; assay type: cell-based; settings: pretreated prior to LPS 100 ng/mL; basal 24.7%, LPS 59.2%; (R)-salbutamol 10 μM
Method: (§3) Macrophages were treated without or with (R)/(S)-salbutamol for 1 h prior to LPS stimulation and subsequently incubated for 12 h. […] The fluorescence of the oxidized product (2′,7′-dichlorofluorescein, DCF) was assessed using an LSM710 Laser Scanning Confocal Microscope (Carl Zeiss, Jena, Germany). The concentration of NO in the culture supernatant was measured by assaying the concentrations of nitrite (a stable NO breakdown product) using the Griess assay (Beyotime, Shanghai, China), according to the manufacturer's instructions. The intracellular NO level was detected using the NO-sensitive fluorescence probe DAF-FM DA (Sigma, St. Louis, Mo., USA) (24). Cells were labeled with DAF-FM DA (10 μM) at 37° C. for 30 min and were gently washed three times with PBS. Fluorescence was detected using a LSM710 Laser Scanning Confocal Microscope (Scale bars, 100 μm) (Carl Zeiss, Jena, Germany).
Macrophages M1 (F4/80+/CD11c+/CD206−) and M2 (F4/80+/CD11c−/CD206+) polarization were analyzed using flow cytometry.

[10] = tested on: LPS-induced macrophage RAW264.7 cells; test: M1 macrophage cytokines (TNF-α, IL-1β, MCP-1) by ELISA; assay type: cell-based; settings: LPS challenge
Method: as §3
To confirm that M1 polarization was predominant over M2 polarization after stimulation with LPS, the levels of typical M1 macrophage cytokines (i.e., TNF-α, IL-1β and MCP-1) were quantified using ELISA; these cytokines are mainly synthesized by macrophages and play an important role in inflammatory diseases (35,36). This invention disclosed that TNF-α […] from 2.62-fold to 0.75-fold of control levels following LPS stimulation (FIG. 8A). IL-1β is a hallmark of many chronic inflammatory diseases in humans and is reportedly associated with acute phase reactions (35,37). […] We conclude that LPS is likely to lead to M1 polarization but not M2 polarization.

[11] = tested on: LPS-induced RAW264.7 cells; test: NO production (DAF-FM DA probe, Griess assay); assay type: cell-based; settings: LPS-induced cells
Method: as §3
In addition, the concentration of NO in the culture supernatant was measured by assaying the concentrations of nitrite (a stable NO breakdown product) using the Griess assay. […] To investigate (R)-salbutamol role on the level of iNOS, the mRNA and protein levels of iNOS were determined.

[12] = tested on: LPS-induced RAW264.7 cells; test: Intracellular ROS (DCFH-DA); assay type: cell-based; settings: LPS-induced cells
Method: as §3
LPS can promote cell apoptosis through mitochondrial dysfunction, and mitochondria are the major source of ROS.

## CC(C)(C)NCC(O)c1cc(O)cc(O)c1 (racemic) [rac-terbutaline, terbutaline]
[1]; Mch 2, 10, 20 mg/mL aerosol, rac-ter at double dose of R-ter
  airway bronchoconstriction/hyperactivity (Penh) in response to increased doses of Mch: much less effect
[1]; exposure to saline, after 7 days inhalation pretreatment, OVA group 0.80±0.12, Control group 0.55±0.08, rac-terbutaline at double molar amount
  baseline Penh value (baseline airway reactivity): significantly reduce
[2]; listed as RS(rac)-terbutaline
  per cent of eosinophil counts in blood and BALF: significantly higher
[2]; listed as racemic terbutaline
  per cent of eosinophil counts in blood and BALF: less but similar effects as S-terbutaline
[3]; Example 3, vs model
  PAS stain of lung tissues: inflammatory and histopathological changes, collagen deposition: significant less beneficial effects
[3]; rac-terbutaline at double dose
  degree of inflammatory cell infiltration (H&E, histological score): ameliorated
[3]; vs OVA group
  PAS and Masson staining: subepithelial matrix glycoproteins, goblet cell hyperplasia, collagen deposition: much less or not effective
p38 MAPK
  p38 MAPK phosphorylation (ratio of phosphorylated to total p38 MAPK): much less effects

## C[C@@H]1C[C@H]2[C@@H]3CCC4=CC(=O)C=C[C@]4(C)[C@@]3(F)[C@@H](O)C[C@]2(C)[C@@]1(O)C(=O)CO [Dexamethasone, dexamethasone, reference compound]
BALB/c mice [4]; 5.0 mg/kg + LPS
  Percent of death after LPS challenges, 12 h: 0%
  Percent of death after LPS challenges, 24 h: 90.9%
  Percent of death after LPS challenges, 36 h: 90.9%
  Percent of death after LPS challenges, 48 h: 100%
  Percent of death after LPS challenges, 72 h: 100%
  Percent of death after LPS challenges, 144 h: 100%
BALB/c mice [5]; LPS + saline 0.13 ± 0.03
  Tidal volume: 0.15 ± 0.04 mL
BALB/c mice [5]; LPS + saline 1.31 ± 0.40
  Penh: 1.01 ± 0.46

## CC(C)(C)NCC(O)c1ccc(O)c(CO)c1 (racemic) [RS salbutamol, salbutamol]
OVA induced asthma mice [6]
  increase in airway resistance after treatment: 214%

## OCc1cc([C@H](O)CNCCCCCCOCCCCc2ccccc2)ccc1O [(S)-salmeterol, reference compound]
[7]
  polarized M1 macrophages or M2 macrophages: further increased

## CC(C)(C)NC[C@@H](O)c1ccc(O)c(CO)c1 [S-salbutamol, (S)-salbutamol, reference compound]
OVA induced asthma mice [6]
  increase in airway resistant in response to methacholine (in words): much greater; also recorded: further enhance the airway response to methacholine
  increase in airway resistance after treatment: 486%
OVA induced asthma mice [8]; vs OVA model
  PAS staining: goblet cell hyperplasia, mucus over secretion, airway edema: further worsen the inflammatory condition
OVA induced asthma mice [8]; vs ova (model) group
  Masson staining: collagen deposition, wall thickness of bronchiole and vascular vessels: further worsens the inflammatory conditions and further increased the wall thickness
[9]
  prevalence of M1 macrophages (F4/80+/CD11c+/CD206−): facilitated macrophage polarization
[10]
  release and expression of cytokines in LPS induced M1 macrophages (in words): had the opposite effects
[10]; listed as S-albuterol
  release and expression of cytokines in LPS induced M1 macrophages (in words): increased the release of cytokines
[11]
  production/levels of NO (in words): increased
[12]
  production/levels of ROS (in words): increased
BALB/c mice [4]; 0.5 mg/kg + LPS
  Percent of death after LPS challenges, 12 h: 0%
  Percent of death after LPS challenges, 24 h: 36.4%
  Percent of death after LPS challenges, 36 h: 90.9%
  Percent of death after LPS challenges, 48 h: 90.9%
  Percent of death after LPS challenges, 72 h: 90.9%
  Percent of death after LPS challenges, 144 h: 90.9%
BALB/c mice [4]; in comparison of LPS challenged group without pretreatment (mortality 90.9%)
  rate of mortality/death after LPS challenge (in words): same rate of death at 48 hours; also recorded: higher rate of death at 36 h
